Experimental data reported in patent US12201640B2, “19-nor C3,3-disubstituted C21-n-pyrazolyl steroids and methods of use thereof” (Sage Therapeutics, Inc., priority 2013, dated 2025).
Read-outs that look alike come from different tables or passages of the source.

Assays:
Format in all cases: cell-based
GABAA receptor α4β3δ = target: T1, GABAA receptor α4β3δ (Homo sapiens, UniProt P28472+P48169); assay: Patch clamp electrophysiology, manual patch in CHO cells; conditions: 10 μM test article, GABA EC20 2 μM, read-out: GABA (α4β3δ) Manual patch in CHO, % efficacy at 10 μM
T1 construct: expressed in transfected cells; host or cells: CHO cells (transient, lipofection)
T1 sequence (P48169 36-554): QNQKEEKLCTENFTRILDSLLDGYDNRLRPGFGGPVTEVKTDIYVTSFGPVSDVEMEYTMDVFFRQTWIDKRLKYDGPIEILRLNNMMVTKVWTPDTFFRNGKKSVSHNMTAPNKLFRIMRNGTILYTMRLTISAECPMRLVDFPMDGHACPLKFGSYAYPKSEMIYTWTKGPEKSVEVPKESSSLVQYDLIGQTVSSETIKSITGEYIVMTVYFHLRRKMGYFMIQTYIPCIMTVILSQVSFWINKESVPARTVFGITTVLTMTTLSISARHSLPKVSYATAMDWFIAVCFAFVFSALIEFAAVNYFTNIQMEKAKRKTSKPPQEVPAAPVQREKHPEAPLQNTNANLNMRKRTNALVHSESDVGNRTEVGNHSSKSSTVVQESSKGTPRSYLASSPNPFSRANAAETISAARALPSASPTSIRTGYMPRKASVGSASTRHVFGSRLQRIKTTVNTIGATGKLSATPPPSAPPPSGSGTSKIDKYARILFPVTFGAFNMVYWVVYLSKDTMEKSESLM
T1 sequence (P28472 26-473): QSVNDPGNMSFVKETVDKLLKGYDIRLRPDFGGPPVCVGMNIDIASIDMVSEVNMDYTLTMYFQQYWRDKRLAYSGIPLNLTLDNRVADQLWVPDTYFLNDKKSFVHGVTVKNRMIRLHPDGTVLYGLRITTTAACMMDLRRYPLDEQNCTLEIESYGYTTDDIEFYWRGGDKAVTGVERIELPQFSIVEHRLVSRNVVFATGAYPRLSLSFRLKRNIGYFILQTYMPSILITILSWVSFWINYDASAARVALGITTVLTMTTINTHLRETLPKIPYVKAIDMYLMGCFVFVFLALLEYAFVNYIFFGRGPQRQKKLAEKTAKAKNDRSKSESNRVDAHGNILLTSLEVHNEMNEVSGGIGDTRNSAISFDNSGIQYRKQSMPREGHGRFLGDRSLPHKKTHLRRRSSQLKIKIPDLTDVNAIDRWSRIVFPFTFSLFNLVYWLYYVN
T1 sequence (O14764 25-452 partner): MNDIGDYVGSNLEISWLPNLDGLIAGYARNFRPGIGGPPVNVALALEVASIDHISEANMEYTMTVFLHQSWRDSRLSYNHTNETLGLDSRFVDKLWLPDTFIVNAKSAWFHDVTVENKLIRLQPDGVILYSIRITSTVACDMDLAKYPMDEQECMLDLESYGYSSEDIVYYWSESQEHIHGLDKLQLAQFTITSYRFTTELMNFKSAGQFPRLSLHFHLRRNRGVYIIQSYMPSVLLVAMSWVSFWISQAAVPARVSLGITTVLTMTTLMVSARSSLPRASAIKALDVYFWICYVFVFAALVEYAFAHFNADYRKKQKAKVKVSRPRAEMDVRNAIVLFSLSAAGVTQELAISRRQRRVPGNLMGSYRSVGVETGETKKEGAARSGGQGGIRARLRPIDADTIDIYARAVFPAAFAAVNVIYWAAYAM
Method: (§1) Patch Clamp Electrophysiology of Recombinant α1β2γ2 and α4β3δ GABAA Receptors
(§2) Cellular electrophysiology is used to measure the pharmacological properties of our GABAA receptor modulators in heterologous cell systems. Each compound is tested for its ability to affect GABA mediated currents at a submaximal agonist dose (GABA EC20=2 μM). LTK cells are stably transfected with the α1β2γ2 subunits of the GABA receptor and CHO cells are transiently transfected with the α4β3δ subunits via the Lipofecatamine method. Cells were passaged at a confluence of about 50-80% and then seeded onto 35 mm sterile culture dishes containing 2 ml culture complete medium without antibiotics or antimycotics. Confluent clusters of cells are electrically coupled (Pritchett et al., Science, 1988, 242, 1306-1308.). Because responses in distant cells are not adequately voltage clamped and because of uncertainties about the extent of coupling (Verdoorn et al., Neuron 1990, 4, 919-928.), cells were cultivated at a density that enables the recording of single cells (without visible connections to other cells).
(§3) Whole cell currents were measured with HEKA EPC-10 amplifiers using PatchMaster software or by using the high throughput QPatch platform (Sophion). Bath solution for all experiments contained (in mM): NaCl 137 mM, KCl 4 mM, CaCl2 1.8 mM, MgCl2 1 mM, HEPES 10 mM, D-Glucose 10 mM, pH (NaOH) 7.4. In some cases 0.005% cremophor was also added. Intracellular (pipette) solution contained: KCl 130 mM, MgCl2 1 mM, Mg-ATP 5 mM, HEPES 10 mM, EGTA 5 mM, pH 7.2. During experiments, cells and solutions were maintained at room temperature (19° C.-30° C.). For manual patch clamp recordings, cell culture dishes were placed on the dish holder of the microscope and continuously perfused (1 ml/min) with bath solution. After formation of a Gigaohm seal between the patch electrodes and the cell (pipette resistance range: 2.5 MΩ-6.0 MΩ; seal resistance range: >1 GΩ) the cell membrane across the pipette tip was ruptured to assure electrical access to the cell interior (whole-cell patch-configuration). For experiments using the QPatch system, cells were transferred as suspension to the QPatch system in the bath solution and automated whole cell recordings were performed.
(§4) Cells were voltage clamped at a holding potential of −80 mV. For the analysis of test articles, GABA receptors were stimulated by 2 μM GABA after sequential pre-incubation of increasing concentrations of the test article. Pre-incubation duration was 30 s and the duration of the GABA stimulus was 2 s. Test articles were dissolved in DMSO to form stock solutions (10 mM). Test articles were diluted to 0.01, 0.1, 1, and 10 μM in bath solution. All concentrations of test articles were tested on each cell. The relative percentage potentiation was defined as the peak amplitude in response to GABA EC20 in the presence of the test article divided by the peak amplitude in response to GABA EC20 alone, multiplied by 100.

GABAA-R = target: T2, GABAA-R (Homo sapiens, UniProt P14867+P47870); assay: Electrophysiological evaluation at GABAA-R (Table 2)
T2 sequence (P14867 1-456): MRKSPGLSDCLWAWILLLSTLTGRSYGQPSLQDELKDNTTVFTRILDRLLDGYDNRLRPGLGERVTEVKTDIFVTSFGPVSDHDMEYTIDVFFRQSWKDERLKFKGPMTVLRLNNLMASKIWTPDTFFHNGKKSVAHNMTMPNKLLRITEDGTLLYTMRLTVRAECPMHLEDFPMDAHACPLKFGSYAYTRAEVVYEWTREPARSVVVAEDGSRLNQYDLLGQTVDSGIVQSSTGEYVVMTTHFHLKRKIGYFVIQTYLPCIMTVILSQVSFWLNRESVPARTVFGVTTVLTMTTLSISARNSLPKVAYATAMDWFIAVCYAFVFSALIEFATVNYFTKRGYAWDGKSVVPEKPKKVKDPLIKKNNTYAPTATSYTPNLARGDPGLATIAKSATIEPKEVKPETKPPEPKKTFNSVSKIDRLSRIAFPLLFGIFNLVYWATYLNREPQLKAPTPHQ
T2 sequence (P47870 1-512): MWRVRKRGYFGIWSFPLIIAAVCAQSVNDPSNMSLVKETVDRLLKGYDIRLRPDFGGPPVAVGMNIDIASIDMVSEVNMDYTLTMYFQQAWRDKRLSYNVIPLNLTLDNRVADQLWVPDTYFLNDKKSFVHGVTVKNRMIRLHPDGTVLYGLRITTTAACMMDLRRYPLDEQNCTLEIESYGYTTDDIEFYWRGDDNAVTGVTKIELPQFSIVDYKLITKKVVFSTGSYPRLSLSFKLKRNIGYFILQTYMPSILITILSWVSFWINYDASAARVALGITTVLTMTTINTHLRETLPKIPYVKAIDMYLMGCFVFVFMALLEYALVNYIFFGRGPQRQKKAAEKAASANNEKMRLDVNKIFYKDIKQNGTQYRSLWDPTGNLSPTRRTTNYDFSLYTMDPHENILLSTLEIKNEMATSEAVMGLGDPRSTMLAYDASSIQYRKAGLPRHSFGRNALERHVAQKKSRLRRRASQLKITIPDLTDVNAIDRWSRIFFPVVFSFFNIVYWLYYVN
Method: as §1, §2, §3, §4

GABAA receptor α1β2γ2 = target: T3, GABAA receptor α1β2γ2 (Homo sapiens, UniProt P14867+P47870); assay: Patch clamp electrophysiology, Qpatch in Ltk cells; conditions: 10 μM test article, GABA EC20 2 μM, read-out: GABA (α1β2γ2) Qpatch in Ltk, % efficacy at 10 μM
T3 construct: expressed in transfected cells
T3 sequence (P18507 40-475 partner, one chain of several): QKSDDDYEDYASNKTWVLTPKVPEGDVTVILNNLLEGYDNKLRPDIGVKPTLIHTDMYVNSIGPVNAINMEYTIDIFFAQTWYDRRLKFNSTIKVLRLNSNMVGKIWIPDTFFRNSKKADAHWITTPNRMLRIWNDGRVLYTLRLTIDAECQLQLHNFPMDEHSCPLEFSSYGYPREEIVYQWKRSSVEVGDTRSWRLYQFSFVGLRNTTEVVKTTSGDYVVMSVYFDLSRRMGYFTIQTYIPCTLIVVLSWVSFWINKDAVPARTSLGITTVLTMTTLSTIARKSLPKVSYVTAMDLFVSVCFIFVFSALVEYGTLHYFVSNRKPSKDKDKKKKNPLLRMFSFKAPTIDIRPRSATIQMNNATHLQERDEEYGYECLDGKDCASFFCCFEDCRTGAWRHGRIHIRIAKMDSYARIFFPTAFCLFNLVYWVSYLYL
Outline: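 Whole-cell voltage clamp at −80 mV, room temperature: α1β2γ2 stably expressed in Ltk cells (QPatch), α4β3δ transiently in CHO cells (manual patch). Compound at 0.01–10 μM pre-applied 30 s, then 2 μM GABA (EC20) for 2 s. Potentiation = peak current with compound / GABA alone × 100.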

[1] = GABAA-R electrophysiology, read-out: EC50

| SMILES | Emax at 10 µM (GABAA receptor α4β3δ) | Emax (GABAA-R; GABAA-R electrophysiology) | EC50 (GABAA-R; [1]) | Emax at 10 µM (GABAA receptor α1β2γ2) | EC50 (GABAA-R) |
| --- | --- | --- | --- | --- | --- |
| C[C@@]1(O)CC[C@H]2[C@H](CC[C@@H]3[C@@H]2CC[C@]2(C)[C@@H](C(=O)Cn4cccn4)CC[C@@H]32)C1 [SA-13] | > 500% | 0 to 500% | 500 to 1000 nM | 100 to 500% |  |
| Cc1cnn(CC(=O)[C@H]2CC[C@H]3[C@@H]4CC[C@@H]5C[C@](C)(O)CC[C@@H]5[C@H]4CC[C@]23C)c1 [SA-6] | > 500% | 0 to 500% | 100 to 500 nM | 100 to 500% |  |
| C[C@@]1(O)CC[C@H]2[C@H](CC[C@@H]3[C@@H]2CC[C@]2(C)[C@@H](C(=O)Cn4cc(C#N)cn4)CC[C@@H]32)C1 [SA-4] | 100 to 500% | 0 to 500% |  | 100 to 500% | 100 to 500 nM |
